Read-outs that look alike come from different tables or passages of the source.
Legend:
[1] = human or animal subjects; cited from earlier work
[2] = test system: human renal carcinoma cells; experiment: DNA synthesis by bromodeoxyuridine (BrdU) incorporation into renal carcinoma cells; assay type: cell-based; settings: 1 μM, incubated 24 hours
Excerpt: To investigate whether these peptide hormones were inhibiting DNA synthesis, bromodeoxyuridine (BrdU) incorporation into the renal carcinoma cells was utilized as previously described from our laboratory. BrdU was from BD Bioscience, San Jose, Calif.

[3] = test system: human renal-cell carcinoma cells (ATCC CRL-2175); experiment: Decrease in number of human renal-cell carcinoma cells (cell counting on coverslips); assay type: cell-based; settings: for number of renal carcinoma cells remaining per high powered field: control 89±7 cells
Procedure: A cell line (ATCC number CRL-2175) of human renal-cell carcinoma cells were purchased from American Type Culture Collection (ATCC, Manassas, Va.). This renal cancer cell line was established by A. Leibovitz in 1972 from a renal-cell carcinoma removed from a person with blood type O, Rh+.
Propagation of these renal cancer cells was in Leibovitz's L-15 medium supplemented with 10% fetal bovine serum (Atlanta Biologicals, Lawrenceville, Ga.) at a temperature of 37° C. in a CO2 free environment as recommended by the ATCC. Cells were dispensed in new flasks with subculturing two to three times per week.
After the renal-cell carcinoma cells were subcultured for 24 hours they were then seeded to coverslips in 24-well plates (Nunclon™, Roskilde, Denmark) with 1 mL of the above media. There were 65,000 cells seeded to each coverslip. After 24 hours, the well plates were washed twice with phosphate-buffered saline to remove the fetal bovine serum. Removal of serum was carried out to completely remove all variables (EGF, etc.) present in serum in order that interpretation of any data obtained would be straightforward. After 24 hours of serum deprivation, media volume was reduced to 250 μL per well with, or without, the respective peptide hormones in dose-response curves with concentrations up to and including 100 μM (1% of this volume). Human renal carcinoma cells were then incubated for various periods of time [24, 48, 72, and 96 hours]. The number of renal carcinoma cells were then counted with a cell counter (Thomas Scientific Swedesboro, N. J.) evaluating ten fields of the microscope slide at x40 along the X-axis with an Olympus BH-2 microscope (Atlanta, Ga.). This evaluation was repeated on six separate occasions with the number of renal carcinoma cells reflecting 60 observations for each group, i.e., 60 observations for controls and 60 observations for each of the six groups with respective peptide hormones. The peptide hormones used in this investigation were from Phoenix Pharmaceuticals, Inc., Belmont, Calif. In the Results section, the number of cancer cells reported is the number of cells in each individual field. Ten fields were examined on each microscope slide. The results of the ten fields were pooled and the average of the ten fields is illustrated in the Results section.
The number of renal carcinoma cells after 24 hours without the addition of any of the peptide hormones averaged 89±7 cells per high powered field when ten fields of the coverslip were evaluated at ×40 along the X-axis with an Olympus BH2 microscope. This evaluation was repeated on six separate occasions, with the above number reflecting 60 observations by two independent investigators of the control group and each of the five groups with the addition of one of the peptide hormones. The same number of observations were done in a seventh group where four of the peptides were added together (each at 1 μM) to determine if they may have an additive effect.

NPR-C receptor = NPR-C receptor (Homo sapiens, UniProt P17342); settings: cited from earlier work
NPR-A receptor = NPR-A receptor (Homo sapiens, UniProt P16066); settings: cited from earlier work
[4] = test system: small-cell lung cancer cells; settings: 1 μM; cited from earlier work
prostate adenocarcinoma = settings: 1 μM; cited from earlier work
[5] = 1 μM, at 48 hours after 24 hour exposure
[6] = 1 μM, at 72 hours after 24 hour exposure
[7] = 1 μM, at 96 hours after 24 hour exposure
[8] = 10 μM, at 48 hours after 24 hour exposure
[9] = 10 μM, at 72 hours after 24 hour exposure
[10] = 10 μM, at 96 hours after 24 hour exposure
[11] = 100 μM, at 48 hours after 24 hour exposure
[12] = 100 μM, at 72 hours after 24 hour exposure
[13] = 100 μM, at 96 hours after 24 hour exposure

Chain of NPR-A receptor (P16066 33-1061): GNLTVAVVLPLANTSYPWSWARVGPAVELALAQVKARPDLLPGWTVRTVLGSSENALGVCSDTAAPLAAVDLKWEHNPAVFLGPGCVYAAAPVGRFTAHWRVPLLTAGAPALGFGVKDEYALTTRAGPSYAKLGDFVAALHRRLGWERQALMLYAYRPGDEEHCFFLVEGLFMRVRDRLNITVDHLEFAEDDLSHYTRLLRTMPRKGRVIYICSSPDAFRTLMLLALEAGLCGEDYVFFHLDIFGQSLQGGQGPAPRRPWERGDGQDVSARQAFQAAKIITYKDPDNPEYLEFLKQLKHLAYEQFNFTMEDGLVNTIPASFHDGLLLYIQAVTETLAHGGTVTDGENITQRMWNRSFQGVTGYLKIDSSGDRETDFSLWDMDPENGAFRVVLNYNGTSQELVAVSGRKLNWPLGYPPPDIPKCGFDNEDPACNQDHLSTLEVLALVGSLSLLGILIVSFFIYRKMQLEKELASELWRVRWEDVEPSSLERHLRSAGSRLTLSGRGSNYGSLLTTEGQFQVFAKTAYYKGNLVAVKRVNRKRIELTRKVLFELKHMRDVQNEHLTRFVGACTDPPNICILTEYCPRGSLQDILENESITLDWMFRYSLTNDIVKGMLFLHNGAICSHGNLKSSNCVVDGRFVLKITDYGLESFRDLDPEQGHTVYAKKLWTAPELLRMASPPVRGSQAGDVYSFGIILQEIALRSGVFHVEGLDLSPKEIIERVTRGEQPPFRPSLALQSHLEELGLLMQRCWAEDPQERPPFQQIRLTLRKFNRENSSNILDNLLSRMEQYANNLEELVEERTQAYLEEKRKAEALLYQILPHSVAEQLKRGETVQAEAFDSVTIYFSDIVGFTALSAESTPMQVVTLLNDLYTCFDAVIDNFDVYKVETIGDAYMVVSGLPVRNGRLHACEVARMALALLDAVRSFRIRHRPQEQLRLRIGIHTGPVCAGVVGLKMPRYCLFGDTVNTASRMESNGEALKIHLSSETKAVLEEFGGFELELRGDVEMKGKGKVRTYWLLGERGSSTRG
Chain of NPR-C receptor (P17342 27-541): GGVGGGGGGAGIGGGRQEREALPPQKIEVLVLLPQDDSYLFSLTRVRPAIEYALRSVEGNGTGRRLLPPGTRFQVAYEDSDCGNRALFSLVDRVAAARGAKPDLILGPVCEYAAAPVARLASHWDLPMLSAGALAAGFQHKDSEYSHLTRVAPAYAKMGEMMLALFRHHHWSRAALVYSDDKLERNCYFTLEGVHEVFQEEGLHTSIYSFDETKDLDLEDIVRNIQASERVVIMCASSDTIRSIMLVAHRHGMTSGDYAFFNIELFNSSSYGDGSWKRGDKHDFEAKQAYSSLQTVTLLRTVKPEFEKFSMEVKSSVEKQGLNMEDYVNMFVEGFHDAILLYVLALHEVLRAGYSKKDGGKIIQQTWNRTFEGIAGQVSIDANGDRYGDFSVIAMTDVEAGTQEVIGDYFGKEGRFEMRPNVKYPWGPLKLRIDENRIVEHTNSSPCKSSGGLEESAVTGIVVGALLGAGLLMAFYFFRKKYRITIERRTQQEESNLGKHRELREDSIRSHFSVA

Compound	side effect hypotension [1]	inhibition of DNA synthesis [2]	decrease in number of renal carcinoma cells [3, 5]	decrease in number of renal carcinoma cells [3, 6]	decrease in number of renal carcinoma cells [3, 7]	decrease in number of renal carcinoma cells ([3]; 10 μM, 24 hours)	decrease in number of renal carcinoma cells [3, 8]	decrease in number of renal carcinoma cells [3, 9]	decrease in number of renal carcinoma cells [3, 10]	decrease in number of renal carcinoma cells ([3]; 100 μM, 24 hours)	number of renal carcinoma cells remaining per high powered field ([3]; 100 μM, 24 hours)	decrease in number of renal carcinoma cells [3, 11]	decrease in number of renal carcinoma cells [3, 12]	decrease in number of renal carcinoma cells [3, 13]	decrease in number of renal carcinoma cells ([3]; 1 μM, 24 hours)	further results
CC[C@H](C)[C@@H]1NC(=O)[C@H](CCCNC(=N)N)NC(=O)[C@H](CC(=O)O)NC(=O)[C@H](CCSC)NC(=O)[C@H](CCCNC(=N)N)NC(=O)CNC(=O)CNC(=O)[C@H](Cc2ccccc2)NC(=O)[C@@H](NC(=O)[C@H](CO)NC(=O)[C@H](CO)NC(=O)[C@H](CCCNC(=N)N)NC(=O)[C@H](CCCNC(=N)N)NC(=O)[C@H](CC(C)C)NC(=O)[C@@H](N)CO)CSSC[C@@H](C(=O)N[C@@H](CC(N)=O)C(=O)N[C@@H](CO)C(=O)N[C@@H](Cc2ccccc2)C(=O)N[C@@H](CCCNC(=N)N)C(=O)N[C@@H](Cc2ccc(O)cc2)C(=O)O)NC(=O)CNC(=O)[C@H](CC(C)C)NC(=O)CNC(=O)[C@H](CO)NC(=O)[C@H](CCC(N)=O)NC(=O)[C@H](C)NC(=O)CNC1=O [ANP]	observed	77%														
LANP: long acting natriuretic peptide, peptide hormone within the 126 amino acid ANP prohormone (NPMYNAVSNADLMDFKNLLDHLEEKMPLED; Long-acting natriuretic peptide; UniProt P01160 26-55, looked up)	never	70%	30%	30%	24%	55%	50%	47%	39%	70%	26±2 cells	70%	70%	61%		
Urodilatin		65%	17%	15%	10%	46%	46%	43%	37%	66%	30±2 cells	65%	64%	58%	24%	binding curves compared with ANP (NPR-C receptor): superimposable with ANP; binding curves compared with ANP (NPR-C receptor; listed as urodilatin): nearly superimposable binding curves; binding curves compared with ANP (NPR-A receptor): superimposable with ANP; binding curves compared with ANP (NPR-A receptor; listed as urodilatin): nearly superimposable binding curves; cancer cells killed (maximum) ([3]; within 24 hours, concentration not given): up to 81%
kaliuretic peptide: peptide hormone within the 126 amino acid ANP prohormone synthesized in the heart (SSDRSALLKSKLRALLTAPR; Kaliuretic peptide; UniProt P01160 104-123, looked up)	never	74%	35%	31%	25%	54%	52%	47%	40%	74%	23±3 cells	76%	71%	64%	39%	decrease in cancer cell number [4]: 30%; decrease in cancer cell number (prostate adenocarcinoma): 30%
vessel dilator: peptide hormone within the 126 amino acid ANP prohormone synthesized in the heart (EVVPPQVLSEPNEEAGAALSPLPEVPPWTGEVSPAQR; Vessel dilator; UniProt P01160 56-92, looked up)	never	84%	55%	51%	43%	62%	66%	64%	55%	81%	17±4 cells	81%	80%	68%	59%	
